In US7960377B2 (priority 2008, dated 2011):

Biological target: human CB1 receptor (Homo sapiens, UniProt P21554)
Experiment: cell-based

Chain of human CB1 receptor (P21554 whole entry): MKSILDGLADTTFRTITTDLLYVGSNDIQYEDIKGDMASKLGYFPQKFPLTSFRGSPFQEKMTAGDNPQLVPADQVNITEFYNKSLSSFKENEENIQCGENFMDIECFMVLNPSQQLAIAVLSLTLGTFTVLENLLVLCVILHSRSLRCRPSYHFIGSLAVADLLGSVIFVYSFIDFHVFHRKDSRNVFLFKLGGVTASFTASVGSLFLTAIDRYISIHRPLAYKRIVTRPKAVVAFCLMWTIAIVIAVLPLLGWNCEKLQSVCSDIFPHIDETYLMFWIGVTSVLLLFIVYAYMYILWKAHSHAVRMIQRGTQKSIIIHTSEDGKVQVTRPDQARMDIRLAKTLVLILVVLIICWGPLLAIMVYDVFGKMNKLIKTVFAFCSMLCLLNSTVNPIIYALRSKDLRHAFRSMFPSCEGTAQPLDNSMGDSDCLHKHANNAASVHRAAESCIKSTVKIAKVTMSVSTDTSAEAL

With `O=C(NC1CCCC1)c1cnc2c(c1)N(Cc1ccccc1)C(=O)CO2` [Example 219, 1-benzyl-N-cyclopentyl-2-oxo-2,3-dihydro-1H-pyrido[2,3-b] [1,4]oxazine-7-carboxamide] as the molecule, how does the EC50 read?
The EC50 was > 30 µM.

Which EC50 does the source give for `CCC(C)(C)NC(=O)c1cnc2c(c1)N(S(=O)(=O)N(C)C)CCO2` [Example 143, 1-(N,N-dimethyl-sulfamoyl)-N-tert-pentyl-2,3-dihydro-1H-pyrido[2,3-b][1,4]oxazine-7-carboxamide] here?
Its EC50 is > 30 µM.

`CC(C)CS(=O)(=O)N1CCOc2ncc(C(=O)NC3CCCC3)cc21` [Example 29, N-cyclopentyl-1-(isobutylsulfonyl)-2,3-dihydro-1H-pyrido[2,3-b][1,4]oxazine-7-carboxamide] was tested. Which EC50 did it give?
The EC50 was > 30 µM.

Which EC50 does the source give for `CNCC(C)(C)COC(=O)c1cnc2c(c1)N(S(=O)(=O)c1ccc(Cl)c(Cl)c1)CCO2` [Example 204, 2,2-dimethyl-3-(methylamino)propyl 1-(3,4-dichlorophenylsulfonyl)-2,3-dihydro-1H-pyrido[2,3-b][1,4]oxazine-7-carboxylate] here?
Its EC50 is > 30 µM.

`O=C(NCC1CCCO1)c1cnc2c(c1)N(S(=O)(=O)c1ccc(F)cc1)CCO2` (centres unmarked) [Example 14, 1-(4-fluorophenyl-sulfonyl)-N-((tetra-hydrofuran-2-yl)methyl)-2,3-dihydro-1H-pyrido [2,3-b][1,4]oxazine-7-carboxamide] was tested. Which EC50 did it give?
Its EC50 is > 30 µM.

Which EC50 does the source give for `CC(C)(O)CNC(=O)c1cnc2c(c1)N(S(=O)(=O)c1ccc(F)cc1F)CCO2` [Example 106, 1-(2,4-difluorophenylsulfonyl)-N-(2-hydroxy-2-methylpropyl)-2,3-dihydro-1H-pyrido[2,3-b][1,4]oxazine-7-carboxamide] here?
The EC50 was > 30 µM.

How did the EC50 turn out when `CC(C)(C)NC(=O)c1cnc2c(c1)N(S(=O)(=O)c1ccc(C(C)(C)C)cc1)CCO2` [Example 82, N-tert-butyl-1-(4-tert-butylphenylsulfonyl)-2,3-dihydro-1H-pyrido[2,3-b][1,4]oxazine-7-carboxamide] was run?
Its EC50 is > 30 µM.

Which EC50 does the source give for `O=C(c1cnc2c(c1)N(S(=O)(=O)c1ccc(C(F)(F)F)cc1)CCO2)N1CCOCC1` [Example 50, morpholino(1-(4-(trifluoromethyl)phenylsulf-onyl)-2,3-dihydro-1H-pyrido[2,3-b][1,4]oxazin-7-yl)methanone] here?
The EC50 was > 30 µM.

With `CC(C)(C)NC(=O)c1cnc2c(c1)N(S(=O)(=O)c1cccnc1)CCO2` [Example 16, N-tert-butyl-1-(pyridin-3-ylsulfonyl)-2,3-dihydro-1H-pyrido[2,3-b][1,4]oxazine-7-carboxamide] as the molecule, how does the EC50 read?
The EC50 was > 30 µM.

Which EC50 does the source give for `O=C(c1cnc2c(c1)N(S(=O)(=O)c1ccc(Cl)c(Cl)c1)CCO2)N1CCC(O)CC1` [Example 127, (1-(3,4-dichlorophenyl-sulfonyl)-2,3-dihydro-1H-pyrido[2,3-b][1,4]oxazin-7-yl)(4-hydroxypiperidin-1-yl)methanone] here?
The EC50 was > 30 µM.

How did the EC50 turn out when `COCCN(C)C(=O)c1cnc2c(c1)N(S(=O)(=O)c1ccc(C(F)(F)F)cc1)CCO2` [Example 35, N-(2-methoxyethyl)-N-methyl-1-(4-(trifluoro-methyl)phenylsulfonyl)-2,3-dihydro-1H-pyrido-[2,3-b][1,4]oxazine-7-carboxamide] was run?
Its EC50 is > 30 µM.

For `CC(C)(CO)NC(=O)c1cnc2c(c1)N(S(=O)(=O)NCc1ccccc1)CCO2` [Example 179, 1-(N-benzylsulfamoyl)-N-(1-hydroxy-2-methylpropan-2-yl)-2,3-dihydro-1H-pyrido[2,3-b][1,4]oxazine-7-carboxamide], which EC50 is on record?
The EC50 was > 30 µM.

For `CC(C)(CN1CCCCC1)NC(=O)c1cnc2c(c1)N(S(=O)(=O)c1ccc(C(F)(F)F)cc1)CCO2` [Example 77, N-(2-methyl-1-(piperidin-1-yl)propan-2-yl)-1-(4-(trifluoromethyl)phenylsulf-onyl)-2,3-dihydro-1H-pyrido[2,3-b][1,4]oxazine-7-carboxamide], which EC50 is on record?
Its EC50 is > 30 µM.

Which EC50 does the source give for `O=C(NC1CCCC1)c1cnc2c(c1)N(Cc1ccc(Cl)cc1)C(=O)CO2` [Example 222, 1-(4-chlorobenzyl)-N-cyclopentyl-2-oxo-2,3-dihydro-1H-pyrido[2,3-b][1,4]oxazine-7-carboxamide] here?
The EC50 was > 30 µM.

Which EC50 does the source give for `CC(C)(C)NC(=O)c1cnc2c(c1)N(Cc1ccccc1)C(=O)CO2` [Example 220, 1-benzyl-N-tert-butyl-2-oxo-2,3-dihydro-1H-pyrido[2,3-b] [1,4]oxazine-7-carboxamide] here?
Its EC50 is > 30 µM.

With `CN(C)S(=O)(=O)N1CCOc2ncc(C(=O)NC(C)(C)C)cc21` [Example 145, N-tert-butyl-1-(N,N-dimethylsulfamoyl)-2,3-dihydro-1H-pyrido[2,3-b][1,4]oxazine-7-carboxamide] as the molecule, how does the EC50 read?
The EC50 was > 30 µM.

`CC(C)(C)NC(=O)c1cnc2c(c1)N(S(=O)(=O)N1CCC(N3CCCC3)CC1)CCO2` [Example 176, N-tert-butyl-1-(4-(pyrrolidin-1-yl)piperidin-1-ylsulfonyl)-2,3-dihydro-1H-pyrido[2,3-b][1,4]oxazine-7-carboxamide] was tested. Which EC50 did it give?
The EC50 was > 30 µM.

With `COCCN(C)C(=O)c1cnc2c(c1)N(S(=O)(=O)c1ccc(Cl)cc1)CCO2` [Example 34, 1-(4-chlorophenyl-sulfonyl)-N-(2-methoxy-ethyl)-N-methyl-2,3-dihydro-1H-pyrido[2,3-b][1,4]oxazine-7-carboxamide] as the molecule, how does the EC50 read?
The EC50 was > 30 µM.

Which EC50 does the source give for `COCCNC(=O)c1cnc2c(c1)N(S(=O)(=O)c1ccc(C(F)(F)F)cc1)CCO2` [Example 51, N-(2-methoxyethyl)-1-(4-(trifluoromethyl)phenysulf-onyl)-2,3-dihydro-1H-pyrido[2,3-b][1,4]oxazine-7-carboxamide] here?
The EC50 was > 30 µM.

With `CC(C)(C)NC(=O)c1cnc2c(c1)N(S(=O)(=O)c1ccc(Cl)cc1Cl)CCO2` [Example 54, N-tert-butyl-1-(2,4-dichlorophenylsulfonyl)-2,3-dihydro-1H-pyrido[2,3-b][1,4]oxazine-7-carboxamide] as the molecule, how does the EC50 read?
The EC50 was > 30 µM.

`O=C(NC1CCCC1)c1cnc2c(c1)N(S(=O)(=O)c1cccnc1)CCO2` [Example 17, N-cyclopentyl-1-(pyridin-3-ylsulfonyl)-2,3-dihydro-1H-pyrido[2,3-b][1,4]oxazine-7-carboxamide] was tested. Which EC50 did it give?
The EC50 was > 30 µM.

Which EC50 does the source give for `CC(C)CS(=O)(=O)N1CCOc2ncc(C(=O)NC(C)(C)C)cc21` [Example 28, N-tert-butyl-1-(isobutylsulfonyl)-2,3-dihydro-1H-pyrido[2,3-b][1,4]oxazine-7-carboxamide] here?
The EC50 was > 30 µM.

How did the EC50 turn out when `CC(C)(C)NC(=O)c1cnc2c(c1)N(S(=O)(=O)Cc1ccc(F)cc1)CCO2` [Example 62, N-tert-butyl-1-(4-fluorobenzylsulfonyl)-2,3-dihydro-1H-pyrido[2,3-b][1,4]oxazine-7-carboxamide] was run?
The EC50 was > 30 µM.

`CC(C)(C)NC(=O)c1cnc2c(c1)N(S(=O)(=O)c1cccc(OC(F)(F)F)c1)CCO2` [Example 85, N-tert-butyl-1-(3-(trifluoromethoxy)phenyl-sulfonyl)-2,3-dihydro-1H-pyrido[2,3-b][1,4]oxazine-7-carboxamide] was tested. Which EC50 did it give?
The EC50 was > 30 µM.

With `CN(Cc1ccccc1)C(=O)c1cnc2c(c1)N(S(=O)(=O)c1ccc(F)cc1)CCO2` [Example 32, N-benzyl-1-(4-fluorophenylsulfonyl)-N-methyl-2,3-dihydro-1H-pyrido[2,3-b][1,4]oxazine-7-carboxamide] as the molecule, how does the EC50 read?
Its EC50 is > 30 µM.

Which EC50 does the source give for `O=C(NCC1CCOCC1)c1cnc2c(c1)N(S(=O)(=O)c1ccc(F)cc1)CCO2` [Example 9, 1-(4-fluorophenyl-sulfonyl)-N-((tetrahydro-2H-pyran-4-yl)methyl)-2,3-dihydro-1H-pyrido[2,3-b][1,4]oxazine-7-carboxamide] here?
Its EC50 is > 30 µM.

How did the EC50 turn out when `CC(C)(O)CNC(=O)c1cnc2c(c1)N(S(=O)(=O)c1ccc(F)c(Cl)c1)CCO2` [Example 108, 1-(3-chloro-4-fluorophenylsulfonyl)-N-(2-hydroxy-2-methylpropyl)-2,3-dihydro-1H-pyrido[2,3-b][1,4]oxazine-7-carboxamide] was run?
Its EC50 is > 30 µM.

With `O=C(c1noc(-c2cnc3c(c2)N(S(=O)(=O)c2ccc(F)cc2)CCO3)n1)N1CCOCC1` [Example 215, (5-(1-(4-fluorophenyl-sulfonyl)-2,3-dihydro-1H-pyrido[2,3-b][1,4]oxazin-7-yl)-1,2,4-oxadiazol-3-yl)(morpholino)methanone] as the molecule, how does the EC50 read?
The EC50 was > 30 µM.

Which EC50 does the source give for `CN(CCO)C(=O)c1cnc2c(c1)N(S(=O)(=O)c1ccc(Cl)c(Cl)c1)CCO2` [Example 120, 1-(3,4-dichlorophenyl-sulfonyl)-N-(2-hydroxy-ethyl)-N-methyl-2,3-dihydro-1H-pyrido[2,3-b][1,4]oxazine-7-carboxamide] here?
Its EC50 is > 30 µM.

For `O=C(c1cnc2c(c1)N(S(=O)(=O)c1ccccc1)CCO2)N1CCCCC1` [Example 1, (1-(phenylsulfonyl)-2,3-dihydro-1H-pyrido[2,3-b][1,4]oxazin-7-yl)(piperidin-1-yl)methanone], which EC50 is on record?
Its EC50 is > 30 µM.

Which “inverse agonist mark, human CB1 receptor” value (asterisk at the compound number) does the source give for `CC(C)(C)NC(=O)c1cnc2c(c1)N(S(=O)(=O)c1ccc(Oc3ccccc3)cc1)CCO2` [Example 93, N-tert-butyl-1-(4-phenoxyphenylsulfonyl)-2,3-dihydro-1H-pyrido[2,3-b][1,4]oxazine-7-carboxamide] here?
The value was 2, 3, 5, 7, 8, 10, 39, 58, 61*, 69, 93*, 101, 102, 109, 110, 111, 112,.

Which EC50 does the source give for `COC(=O)CC1CCCCN1C(=O)c1cnc2c(c1)N(S(=O)(=O)c1ccc(C(F)(F)F)cc1)CCO2` (racemic) [Example 73, +/− methyl 2-(1-(1-(4-(trifluoromethyl)phenylsulf-onyl)-2,3-dihydro-1H-pyrido[2,3-b][1,4]oxazine-7-carbonyl)piperidin-2-yl)acetate] here?
Its EC50 is > 30 µM.

How did the EC50 turn out when `CC1CC(C)CN(C(=O)c2cnc3c(c2)N(S(=O)(=O)c2ccc(C(F)(F)F)cc2)CCO3)C1` (centres unmarked) [Example 200, (3,5-dimethylpiperidin-1-yl)(1-(4-(trifluoromethyl)phenylsulf-onyl)-2,3-dihydro-1H-pyrido[2,3-b][1,4]oxazin-7-yl)methanone] was run?
Its EC50 is > 30 µM.

For `CN(Cc1ccccc1)C(=O)c1cnc2c(c1)N(S(=O)(=O)c1ccc(C(F)(F)F)cc1)CCO2` [Example 36, N-benzyl-N-methyl-1-(4-(trifluoromethyl)phenylsulf-onyl)-2,3-dihydro-1H-pyrido[2,3-b][1,4]oxazine-7-carboxamide], which EC50 is on record?
The EC50 was > 30 µM.

Which EC50 does the source give for `O=C(c1cnc2c(c1)N(S(=O)(=O)c1ccc(C(F)(F)F)cc1)CCO2)N1CCCCC1CN1CCOCC1` (racemic) [Example 76, +/− (2-(morpholino-methyl)piperidin-1-yl)(1-(4-(trifluoromethyl)-phenylsulfonyl)-2,3-dihydro-1H-pyrido[2,3-b][1,4]oxazin-7-yl)methanone] here?
The EC50 was > 30 µM.
